According to patent US20260042762A1 (Kymera Therapeutics, Inc., priority 2018, published 2026):
Where a name gives a salt, the structure may show the parent alone.

These compounds were tested against T1, MerTK (Homo sapiens, UniProt Q12866) (assay: MerTk degradation in Jurkat cells (Western blot)). Conditions: 0.001-1 μM, 4 hour-incubation at 37° C., read-out: Jurkat Max % MerTK Degradation.
T1 construct: endogenous in cells; host or cells: Jurkat cells
T1 sequence (Q12866 21-999): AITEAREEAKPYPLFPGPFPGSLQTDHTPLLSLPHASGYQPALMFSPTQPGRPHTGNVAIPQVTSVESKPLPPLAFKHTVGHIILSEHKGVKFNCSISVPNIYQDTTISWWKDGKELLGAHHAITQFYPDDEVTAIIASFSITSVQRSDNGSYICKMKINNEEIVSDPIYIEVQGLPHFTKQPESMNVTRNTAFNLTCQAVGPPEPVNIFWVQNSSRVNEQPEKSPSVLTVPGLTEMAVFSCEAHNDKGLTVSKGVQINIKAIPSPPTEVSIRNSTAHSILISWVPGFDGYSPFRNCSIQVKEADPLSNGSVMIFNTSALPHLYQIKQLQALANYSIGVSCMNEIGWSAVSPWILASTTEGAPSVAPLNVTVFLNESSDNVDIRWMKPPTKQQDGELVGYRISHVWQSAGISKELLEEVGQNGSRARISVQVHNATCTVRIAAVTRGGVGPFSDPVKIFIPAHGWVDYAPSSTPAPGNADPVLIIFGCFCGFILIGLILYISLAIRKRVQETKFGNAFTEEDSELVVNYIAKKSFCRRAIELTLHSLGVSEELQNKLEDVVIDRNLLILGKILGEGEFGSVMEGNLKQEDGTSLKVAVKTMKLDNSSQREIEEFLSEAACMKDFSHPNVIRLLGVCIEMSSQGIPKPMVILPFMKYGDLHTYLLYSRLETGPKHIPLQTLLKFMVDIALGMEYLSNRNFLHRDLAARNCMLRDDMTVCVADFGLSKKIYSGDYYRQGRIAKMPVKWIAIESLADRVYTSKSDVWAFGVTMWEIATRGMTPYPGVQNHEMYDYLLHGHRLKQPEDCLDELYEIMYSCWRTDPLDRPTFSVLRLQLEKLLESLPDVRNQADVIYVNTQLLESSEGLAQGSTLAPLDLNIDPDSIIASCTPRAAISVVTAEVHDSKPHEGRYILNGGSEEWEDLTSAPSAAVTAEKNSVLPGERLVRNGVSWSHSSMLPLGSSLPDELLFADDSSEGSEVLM
Assay type: cell-based
Method in brief: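 Jurkat cells treated 4 h at 37 °C with compound at 0.001-1 μM final. RIPA lysates quantified by BCA, then MerTK probed by Western blot against actin loading control with IR-dye secondaries and Odyssey imaging.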

For CN1CCN(Cc2ccc(-c3ccc(CO[C@H]4CCC[C@@H]4NC(=O)c4cc(-c5cnn(CCCCC(=O)NCCCOCCCc6ccc7c(c6)n(C)c(=O)n7C6CCC(=O)NC6=O)c5)cnc4N)cc3)cc2)CC1 (stereo partly shown) [I-39, formic acid], the Dmax was over 50%.

Same assay, conditions: Jurkat, 4 h, 0.001-1 μM, 4 hour-incubation at 37° C., read-out: Jurkat Max % MerTK Degradation

CCCCNc1ncc2c(-c3ccc(CN4CCN(CCCOCCCOCCCc5ccc6c(c5)n(C)c(=O)n6[C@H]5CCC(=O)NC5=O)CC4)cc3)cn([C@H]3CC[C@H](O)CC3)c2n1 [I-62, 3-[5-[3-(3-[3-[4-([4-[2-(butylamino)-7-[trans-4-hydroxycyclohexy1]-7H-pyrrolo[2,3-d]pyrimidin-5-yl]phenyl]methyl)piperazin-1-y1]propoxy]propoxy)propy1]-3-methyl-2-oxo-2,3-dihydro-1H-1,3-benzodiazol-1-y1]piperidine-2,6-dione dihydrochloride] and CCCNc1ncc2c(-c3ccc(CN4CCN(CCOCCCOCCCc5ccc6c(c5)n(C)c(=O)n6[C@H]5CCC(=O)NC5=O)CC4)cc3)cn([C@H]3CC[C@H](O)CC3)c2n1 [I-71, 3-[3-methyl-2-oxo-5-[3-(3-[2-[4-([4-[2-(propylamino)-7-[trans-4-hydroxycyclohexyl]-7H-pyrrolo[2,3-d]pyrimidin-5-yl]phenyl]methyl)piperazin-1-yl]ethoxy]propoxy)propy1]-2,3-dihydro-1H-1,3-benzodiazol-1-yl]piperidine-2,6-dione] cannot be ordered by Dmax: over 50% for the first, over 50% for the second.

First: CCC1CN(c2ccc(-c3ccnc(Nc4cc(OC)c(OC)c(OCCOCCOCCOCCOCC(=O)N[C@H](C(=O)N5C[C@H](O)C[C@H]5C(=O)NCc5ccc(-c6scnc6C)cc5)C(C)(C)C)c4)n3)cn2)CCN1 (stereo partly shown) [I-233]
Second: Cc1ncsc1-c1ccc(CNC(=O)[C@@H]2C[C@@H](O)CN2C(=O)[C@@H](NC(=O)COCCOCCOCCOCCn2ccc3c(Nc4nc(N[C@@H]5CCCC[C@@H]5N)cc5nc[nH]c(=O)c45)cccc32)C(C)(C)C)cc1 [I-230]
The Dmax of the first is higher: over 50% for the first, under 20% for the second.

Cn1c(=O)n([C@H]2CCC(=O)NC2=O)c2ccc(CCCOCCCOCCN3CCN(Cc4ccc(-c5cn([C@H]6CC[C@H](O)CC6)c6nc(NCC7CC7)ncc56)cc4)CC3)cc21 [I-72, 3-(5-[3-[3-(2-[4-[(4-[2-[(cyclopropylmethyl)amino]-7-[trans-4-hydroxycyclohexy1]-7H-pyrrolo[2,3-d]pyrimidin-5-yl]phenyl)methyl]piperazin-1-yl]ethoxy)propoxy]propy1]-3-methyl-2-oxo-2,3-dihydro-1H-1,3-benzodiazol-1-yl)piperidine-2,6-dione; formic acid] and CCCCNc1ncc2c(-c3ccc(CN4CCN(CCOCCOCCCc5ccc6c(c5)n(C)c(=O)n6[C@H]5CCC(=O)NC5=O)CC4)cc3)nn([C@H]3CC[C@H](O)CC3)c2n1 [I-50, 3-[5-[3-(2-[2-[4-([4-[6-(butylamino)-1-[trans-4-hydroxycyclohexyl]-1H-pyrazolo[3,4-d]pyrimidin-3-yl]phenyl]methyl)piperazin-1-yl]ethoxy]ethoxy)propyl]-3-methyl-2-oxo-2,3-dihydro-1H-1,3-benzodiazol-1-y1]piperidine-2,6-dione; formic acid] cannot be ordered by Dmax: over 50% for the first, over 50% for the second.

CCC[C@H](C)Nc1ncc2c(-c3ccc(CN4CCN(C5CC(OCCc6ccc7c(c6)n(C)c(=O)n7C6CCC(=O)NC6=O)C5)CC4)cc3)cn([C@H]3CC[C@H](O)CC3)c2n1 (stereo partly drawn) [I-175, 3-[3-methyl-2-oxo-5-[2-(3-[4-[(4-[2-[(2S)-pentan-2-ylamino]-7-[trans-4-hydroxycyclohexyl]pyrrolo[2,3-d]pyrimidin-5-yl]phenyl)methyl]piperazin-1-yl]cyclobutoxy)ethyl]-1,3-benzodiazol-1-yl]piperidine-2,6-dione] and Cn1c(=O)n([C@H]2CCC(=O)NC2=O)c2ccc(CCOCCN3CC(N4CCN(Cc5ccc(-c6cn([C@H]7CC[C@H](O)CC7)c7nc(NCCC(F)(F)F)ncc67)cc5)CC4)C3)cc21 [I-129, 3-(3-methyl-2-oxo-5-[2-[2-(3-[4-[(4-[7-[trans-4-hydroxycyclohexy1]-2-[(3,3,3-trifluoropropyl)amino]-7H-pyrrolo[2,3-d]pyrimidin-5-y1]phenyl)methyl]piperazin-1-yl]azetidin-1-yl)ethoxy]ethyl]-2,3-dihydro-1H-1,3-benzodiazol-1-y1)piperidine-2,6-dione; formic acid] cannot be ordered by Dmax: over 50% for the first, over 50% for the second.

CN1CCN(Cc2ccc(-c3ccc(CO[C@H]4CCC[C@@H]4NC(=O)c4cc(-c5cnn(CCOCCOCCOCCCc6ccc7c(c6)n(C)c(=O)n7C6CCC(=O)NC6=O)c5)cnc4N)cc3)cc2)CC1 (stereo partly drawn) [I-203, 2-Amino-5-(1-[2-[2-(2-[3-[1-(2,6-dioxopiperidin-3-yl)-3-methyl-2-oxo-1,3-benzodiazol-5-yl]propoxy]ethoxy)ethoxy]ethyl]pyrazol-4-yl)-N-[(1S,2S)-2-([4-[(4-methylpiperazin-1-yl)methyl]-[1,1-biphenyl]-4-yl]methoxy)cyclopentyl]pyridine-3-carboxamide] and O=C1CC[C@H](n2c3cc(CCCOCCOCCN4CCN(Cc5ccc(-c6cn([C@H]7CC[C@H](O)CC7)c7nc(NCCC(F)(F)F)ncc67)cc5)CC4)ccc3c3cccnc32)C(=O)N1 [I-127, 3-(7-[3-[2-(2-[4-[(4-[7-[trans-4-hydroxycyclohexy1]-2-[(3,3,3-trifluoropropyl)amino]-7H-pyrrolo[2,3-d]pyrimidin-5-yl]phenyl)methyl]piperazin-1-yl]ethoxy)ethoxy]propyl]-9H-pyrido[2,3-b]indol-9-yl)piperidine-2,6-dione] fall in the same range of Dmax: 20 to 50% for the first, 20 to 50% for the second.

CCCCNc1ncc2c(-c3ccc([C@H](C)N4CCN(CCCOCCCc5ccc6c(c5)n(C)c(=O)n6C5CCC(=O)NC5=O)CC4)cc3)cn([C@H]3CC[C@H](O)CC3)c2n1 (stereo partly drawn) [I-104, 3-[5-[3-(3-[4-[(1S)-1-[4-[2-(butylamino)-7-[trans-4-hydroxycyclohexyl]-7H-pyrrolo[2,3-d]pyrimidin-5-yl]phenyl]ethyl]piperazin-1-yl]propoxy)propyl]-3-methyl-2-oxo-2,3-dihydro-1H-1,3-benzodiazol-1-y1]piperidine-2,6-dione] and Cn1c(=O)n(C2CCC(=O)NC2=O)c2ccc(CCCOCCN3CCC(N4CCN(Cc5ccc(-c6cn([C@H]7CC[C@H](O)CC7)c7nc(NCCC(F)(F)F)ncc67)cc5)CC4)C3)cc21 (stereo partly drawn) [I-93, 3-(3-methyl-2-oxo-5-[3-[2-(3-[4-[(4-[7-[trans-4-hydroxycyclohexy1]-2-[(3,3,3-trifluoropropyl)amino]-7H-pyrrolo[2,3-d]pyrimidin-5-yl]phenyl)methyl]piperazin-1-yl]pyrrolidin-1-y1)ethoxy]propyl]-2,3-dihydro-1H-1,3-benzodiazol-1-yl)piperidine-2,6-dione; formic acid] cannot be ordered by Dmax: over 50% for the first, over 50% for the second.

C[C@@H](CC(F)(F)F)Nc1ncc2c(-c3ccc(CN4CCN(CCCOC5CCN(Cc6ccc7c(c6)n(C)c(=O)n7C6CCC(=O)NC6=O)CC5)CC4)cc3)cn([C@H]3CC[C@H](O)CC3)c2n1 (stereo partly drawn) [I-197, 3-(3-methyl-2-oxo-5-[[4-(3-[4-[(4-[7-[trans-4-hydroxycyclohexyl]-2-[[(2S)-4,4,4-trifluorobutan-2-yl]amino]pyrrolo[2,3-d]pyrimidin-5-yl]phenyl)methyl]piperazin-1-yl]propoxy)piperidin-1-yl]methyl]-1,3-benzodiazol-1-y1)piperidine-2,6-dione] and Cn1c(=O)n([C@H]2CCC(=O)NC2=O)c2ccc(CCOCCN3CCC(N4CCN(Cc5ccc(-c6cn([C@H]7CC[C@H](O)CC7)c7nc(NCCC(F)(F)F)ncc67)cc5)CC4)CC3)cc21 [I-130, 3-(3-methyl-2-oxo-5-[2-[2-(4-[4-[(4-[7-[trans-4-hydroxycyclohexyl]-2-[(3,3,3-trifluoropropyl)amino]-7H-pyrrolo[2,3-d]pyrimidin-5-yl]phenyl)methyl]piperazin-1-yl]piperidin-1-y1)ethoxy]ethyl]-2,3-dihydro-1H-1,3-benzodiazol-1-y1)piperidine-2,6-dione] cannot be ordered by Dmax: over 50% for the first, over 50% for the second.

Cn1c(=O)n([C@H]2CCC(=O)NC2=O)c2ccc(CCOCCN3CCN(Cc4cccc(-c5cn([C@H]6CC[C@H](O)CC6)c6nc(NCCC(F)(F)F)ncc56)c4)CC3)cc21 [I-146, 3-[3-methyl-2-oxo-5-[2-(2-[4-[(3-[7-[trans-4-hydroxycyclohexy1]-2-[(3,3,3-trifluoropropyl)amino]pyrrolo[2,3-d]pyrimidin-5-yl]phenyl)methyl]piperazin-1-yl]ethoxy)ethyl]-1,3-benzodiazol-1-yl]piperidine-2,6-dione] showed a Dmax of over 50%.
